{
  "source": "patent US7247626B2",
  "about": "“Pyrazolopyrimidine derivatives and pharmaceutical compositions containing them” (SmithKline Beecham Corporation, priority 2002, dated 2007)",
  "tested_on": "HSV-1",
  "test": "HSV-1 infection of Vero 76 cells, viral DNA hybridization capture assay",
  "format": "cell-based",
  "conditions": "Human alphaherpesvirus 1; HSV-1 (MOI=0.001) in Vero 76 cells, 40–48 hours incubation, HSV DNA hybridization with chemiluminescence detection",
  "protocol": "Vero 76 cells were maintained in MEM with Earle's salts, L-glutamine, 8% FBS (Hyclone, A-1111-L) and 100 units/mL Penicillin-100 μg/mL Streptomycin. For assay conditions, FBS was reduced to 2%. Cells are seeded into 96-well tissue culture plates at a density of 5×10^4 cells/well after being incubated for 45 min at 37° C. in the presence of HSV-1 or HSV-2 (MOI=0.001). Test compounds are added to the wells and the plates are incubated at 37° C. for 40–48 hours. Cell lysates are prepared as follows: media was removed and replaced with 150 μL/well 0.2 N NaOH with 1% Igepal CA 630 or NP-40. Plates were incubated up to 14 days at room temperature in a humidified chamber to prevent evaporation.\nFor the detection probe, a gel-purified, digoxigenin-labeled, […] PCR fragment of the HSV UL-15 sequence was utilized. PCR conditions included 0.5 μM primers, 180 μM dTTP, 20 μM dUTP-digoxigenin (Boehringer Mannheim 1558706), 200 μM each of dATP, dCTP, and dGTP, 1×PCR Buffer II (Perkin Elmer), 2.5 mM, MgCl2, 0.025 units/μL of AmpliTaq Gold polyerase (Perkin Elmer), and 5 ng a gel-purified HSV DNA per 100 μL Extension conditions were 10 min at 95° C., followed by 30 cycles of 95° C. for 1 min, 55° C. for 30 sec, and 72° C. for 2 min. The amplification was completed with a 10-min incubation at 72° C. Primers were selected to amplify a 728 bp probe spanning a section of the HSV1 UL15 open reading frame (nucleotides 249–977). Single-stranded transcripts were purified with Promega M13 Wizard kits. The final product was mixed 1:1 with a mixture of 6 M GuSCN, 100 mM EDTA and 200 μg/mL herring sperm DNA and stored at 4° C.\nThe capture DNA plasmid (HSV UL13 region in pUC) was linearized by cutting with Xba I, denatured for 15 min at 95° C. and diluted immediately into Reacti-Bind DNA Coating Solution (Pierce, 17250, diluted 1:1 with TE buffer, pH 8) at 1 ng/μL 75 μl/well were added to Corning (#3922 or 9690) white 96-well plates and incubated at room temperature for at least 4 hrs before washing twice with 300 μL/well 0.2×SSC/0.05% Tween-20 (SSC/T buffer). The plates were then incubated overnight at room temperature with 150 μL/well 0.2 N NaOH, 1% IGEPAL and 10 μg/mL herring sperm DNA.\nTwenty-seven (27) μL of cell lysate was combined with 45 μL of hydridization solution (final concentration: 3M GuSCN, 50 mM EDTA, 100 μg/ml salmon sperm DNA, 5× Denhardt's solution, 0.25× APE, and 5 ng of the digoxigenin-labeled detection probe). APE is 1.5 M NH4-acetate, 0.15 M NH4H2phosphate, and 5 mM EDTA adjusted to pH 6.0. Mineral oil (50 μL) was added to prevent evaporation. The hybridization plates were incubated at 95° C. for 10 minutes to denature the DNA, then incubated at 42° C. overnight. The wells were washed 6× with 300 μL/well SSC/T buffer then incubated with 75 μL/well anti-digoxigenin-HRP-conjugated antibody (Boehringer Mannheim 1207733, 1:5000 in TE) for 30 min at room temperature. The wells were washed 6× with 300 μL/well with PBS/0.05% Tween-20 before 75 μL/well SuperSignal LBA substrate (Pierce) was added. The plates were incubated at room temperature for 30 minutes and chemiluminescence was measured in a Wallac Vietor reader.\nThe following results were obtained for HSV-1.",
  "data": [
    {"molecule": "Fc1ccc(-c2nn3c(NC4CCCC4)nccc3c2-c2ccnc(NC3CCCC3)n2)cc1", "note": "[Example 1, N-Cyclopentyl-3-[2-(cyclopentylamino)pyrimidin-4-yl]-2-(4-fluorophenyl)pyrazolo[1,5-c]pyrimidin-7-amine]", "values": [
      {"measurement": "IC50", "value": 720, "unit": "nM"}
    ]},
    {"molecule": "Fc1ccc(-c2nn3c(NC4CCCC4)nccc3c2-c2ccnc(NC3CC3)n2)cc1", "note": "[Example 2, N-Cyclopentyl-3-[2-(cyclopropylamino)pyrimidin-4yl]-2-(4-fluorophenyl)pyrazolo[1,5-c]pyrimidin-7-amine]", "values": [
      {"measurement": "IC50", "value": 5500, "unit": "nM"}
    ]},
    {"molecule": "Clc1cccc(-c2nn3cnccc3c2-c2ccnc(NC3CCCC3)n2)c1", "note": "[Example 3, 4-[2-(3-Chlorophenyl)pyrazolo[1,5-c]pyrimidin-3-yl]-N-cyclopentylpyrimidin-2-amine]", "values": [
      {"measurement": "IC50", "value": 3900, "unit": "nM"}
    ]},
    {"molecule": "CSc1nccc2c(-c3ccnc(NC4CCCC4)n3)c(-c3cccc(Cl)c3)nn12", "note": "[Example 4, 4-[2-(3-Chlorophenyl)-7-(methylthio)pyrazolo[1,5-c]pyrimidin-3-yl]-N-cyclopentylpyrimidin-2-amine]", "values": [
      {"measurement": "IC50", "value": 11300, "unit": "nM"}
    ]},
    {"molecule": "Clc1cccc(-c2nn3c(NC4CCCC4)nccc3c2-c2ccnc(NC3CCCC3)n2)c1", "note": "[Example 5, 2-(3-Chlorophenyl)-N-cyclopentyl-3-[2-(cyclopentylamino)-4-pyrimidinyl]pyrazolo[1,5-c]pyrimidin-7-amine]", "values": [
      {"measurement": "IC50", "value": 460, "unit": "nM"}
    ]},
    {"molecule": "Clc1cccc(-c2nn3c(N4CCOCC4)nccc3c2-c2ccnc(NC3CCCC3)n2)c1", "note": "[Example 6, 4-[2-(3-Chlorophenyl)-7-(4-morpholinyl)pyrazolo[1,5-c]pyrimidin-3-yl]-N-cyclopentyl-2-pyrimidinamine]", "values": [
      {"measurement": "IC50", "value": 200, "unit": "nM"}
    ]},
    {"molecule": "COCCNc1nccc2c(-c3ccnc(NC4CCCC4)n3)c(-c3cccc(Cl)c3)nn12", "note": "[Example 7, 2-(3-Chlorophenyl)-3-[2-(cyclopentylamino)-4-pyrimidinyl]-N-(2-methoxyethyl)pyrazolo[1,5-c]pyrimidin-7-amine]", "values": [
      {"measurement": "IC50", "value": 300, "unit": "nM"}
    ]},
    {"molecule": "Oc1nccc2c(-c3ccnc(NC4CCCC4)n3)c(-c3cccc(Cl)c3)nn12", "note": "[Example 8, 2-(3-Chlorophenyl)-3-[2-(cyclopentylamino)-4-pyrimidinyl]pyrazolo[1,5-c]pyrimidin-7-ol]", "values": [
      {"measurement": "IC50", "value": 2500, "unit": "nM"}
    ]},
    {"molecule": "CSc1nc(NC2CCCC2)n2nc(-c3ccccc3)c(-c3ccnc(F)c3)c2n1", "note": "[Example 9, N-Cyclopentyl-8-(2-fluoro-4-pyridinyl)-2-(methylsulfanyl)-7-phenylpyrazolo[1,5-a][1,3,5]triazin-4-amine]", "values": [
      {"measurement": "IC50", "value": 7100, "unit": "nM"}
    ]},
    {"molecule": "c1ccc(-c2nn3c(NC4CCCC4)nc(NC4CCCC4)nc3c2-c2ccnc(NC3CCCC3)c2)cc1", "note": "[Example 10, N^2,N^4-Dicyclopentyl-8-[2-(cyclopentylamino)-4-pyridinyl]-7-phenylpyrazolo[1,5-a][1,3,5]triazine-2,4-diamine]", "values": [
      {"measurement": "IC50", "value": 120, "unit": "nM"}
    ]},
    {"molecule": "c1ccc(-c2nn3c(NC4CCCC4)ncnc3c2-c2ccnc(NC3CCCC3)n2)cc1", "note": "[Example 11, N-Cyclopentyl-8-[2-(cyclopentylamino)-4-pyrimidinyl]-7-phenylpyrazolo[1,5-a][1,3,5]triazin-4-amine]", "values": [
      {"measurement": "IC50", "value": 6400, "unit": "nM"}
    ]},
    {"molecule": "CCCCNc1nccc(-c2c(-c3ccc(F)cc3)nn3c(NC4CCCC4)nccc23)n1", "note": "[Example 12, 3-[2-(Butylamino)pyrimidin-4-yl]-N-cyclopentyl-2-(4-fluorophenyl)pyrazolo[1,5-c]pyrimidin-7-amine]", "values": [
      {"measurement": "IC50", "value": 1000, "unit": "nM"}
    ]},
    {"molecule": "Fc1ccc(-c2nn3c(NC4CCCC4)nccc3c2-c2ccnc(Nc3ccccc3)n2)cc1", "note": "[Example 13, 3-(2-Anilinopyrimidin-4-yl)-N-cyclopentyl-2-(4-fluorophenyl)pyrazolo-[1,5-c]pyrimidin-7-amine]", "values": [
      {"measurement": "IC50", "value": 1500, "unit": "nM"}
    ]},
    {"molecule": "Fc1ccc(-c2nn3c(NC4CCCC4)nccc3c2-c2ccnc(Nc3nc4ccccc4s3)n2)cc1", "note": "[Example 14, 3-[2-(1,3-Benzothiazol-2-ylamino)pyrimidin-4-yl]-N-cyclopentyl-2-(4-fluorophenyl)pyrazolo[1,5-c]pyrimidin-7-amine]", "values": [
      {"measurement": "IC50", "value": "> 40000", "unit": "nM"}
    ]},
    {"molecule": "Cc1csc(Nc2nccc(-c3c(-c4ccc(F)cc4)nn4c(NC5CCCC5)nccc34)n2)n1", "note": "[Example 15, N-Cyclopentyl-2-(4-fluorophenyl)-3-{2-[(4-methyl-1,3-thiazol-2-yl)amino]pyrimidin-4-yl}pyrazolo[1,5-c]pyrimidin-7-amine]", "values": [
      {"measurement": "IC50", "value": "> 40000", "unit": "nM"}
    ]},
    {"molecule": "Fc1ccc(-c2nn3c(NC4CCCC4)nccc3c2-c2ccnc(Nc3nc4ccccc4[nH]3)n2)cc1", "note": "[Example 16, 3-[2-(1H-Benzimidazol-2-ylamino)pyrimidin-4-yl]-N-cyclopentyl-2-(4-fluorophenyl)pyrazolo[1,5-c]pyrimidin-7-amine]", "values": [
      {"measurement": "IC50", "value": "> 40000", "unit": "nM"}
    ]},
    {"molecule": "Fc1ccc(CNc2nccc(-c3c(-c4ccc(F)cc4)nn4c(NC5CCCC5)nccc34)n2)cc1", "note": "[Example 17, N-Cyclopentyl-3-{2-[(4-fluorobenzyl)amino]pyrimidin-4-yl}-2-(4-fluorophenyl)pyrazolo[1,5-c]pyrimidin-7-amine]", "values": [
      {"measurement": "IC50", "value": 2000, "unit": "nM"}
    ]},
    {"molecule": "Fc1ccc(-c2nn3c(NC4CCCC4)nccc3c2-c2ccnc(NCCc3ccccc3)n2)cc1", "note": "[Example 18, N-Cyclopentyl-2-(4-fluorophenyl)-3-{2-[(2-phenylethyl)amino]pyrimidin-4yl}pyrazolo[1,5-c]pyrimidin-7-amine]", "values": [
      {"measurement": "IC50", "value": 3500, "unit": "nM"}
    ]},
    {"molecule": "CC(C)(C)Nc1nccc(-c2c(-c3ccc(F)cc3)nn3c(NC4CCCC4)nccc23)n1", "note": "[Example 19, 3-[2-(tert-Butylamino)pyrimidin-4-yl]-N-cyclopentyl-2-(4-fluorophenyl)pyrazolo[1,5-c]pyrimidin-7-amine]", "values": [
      {"measurement": "IC50", "value": 3000, "unit": "nM"}
    ]},
    {"molecule": "CSc1nccc2c(-c3ccnc(NC4CCCC4)n3)c(-c3ccc(F)cc3)nn12", "note": "[Example 20, N-Cyclopentyl-4-[2-(4-fluorophenyl)-7-(methylsulfanyl)pyrazolo[1,5-c]pyrimidin-3-yl]pyrimidin-2-amine]", "values": [
      {"measurement": "IC50", "value": "> 40000", "unit": "nM"}
    ]},
    {"molecule": "COc1ccc(-c2nn3c(NC4CCCC4)nccc3c2-c2ccnc(NC3CCCC3)n2)cc1", "note": "[Example 21, N-Cyclopentyl-3-[2-(cyclopentylamino)pyrimidin-4-yl]-2-(4-methoxyphenyl)pyrazolo[1,5-c]pyrimidin-7-amine]", "values": [
      {"measurement": "IC50", "value": 400, "unit": "nM"}
    ]},
    {"molecule": "Oc1ccc(-c2nn3c(NC4CCCC4)nccc3c2-c2ccnc(NC3CCCC3)n2)cc1", "note": "[Example 22, 4-{7-(Cyclopentylamino)-3-[2-(cyclopentylamino)pyrimidin-4-yl]pyrazolo[1,5-c]pyrimidin-2-yl}phenol]", "values": [
      {"measurement": "IC50", "value": 4000, "unit": "nM"}
    ]},
    {"molecule": "c1cc(-c2c(-c3ccc(OCC4CC4)cc3)nn3c(NC4CCCC4)nccc23)nc(NC2CCCC2)n1", "note": "[Example 23, N-Cyclopentyl-3-[2-(cyclopentylamino)pyrimidin-4-yl]-2-[4-(cyclopropylmethoxy)phenyl]pyrazolo[1,5-c]pyrimidin-7-amine]", "values": [
      {"measurement": "IC50", "value": 500, "unit": "nM"}
    ]},
    {"molecule": "COc1ccc(-c2nn3c(NC4CC4)nccc3c2-c2ccnc(NC3CCCC3)n2)cc1", "note": "[Example 24, 3-[2-(Cyclopentylamino)pyrimidin-4-yl]-N-cyclopropyl-2-(4-methoxyphenyl)pyrazolo[1,5-c]pyrimidin-7-amine]", "values": [
      {"measurement": "IC50", "value": 1000, "unit": "nM"}
    ]},
    {"molecule": "CCCCOc1ccc(-c2nn3c(NC4CCCC4)nccc3c2-c2ccnc(NC3CCCC3)n2)cc1", "note": "[Example 25, 2-(4-Butoxyphenyl)-N-cyclopentyl-3-[2-(cyclopentylamino)pyrimidin-4-yl]pyrazolo[1,5-c]pyrimidin-7-amine]", "values": [
      {"measurement": "IC50", "value": 600, "unit": "nM"}
    ]},
    {"molecule": "CC(C)COc1ccc(-c2nn3c(NC4CCCC4)nccc3c2-c2ccnc(NC3CCCC3)n2)cc1", "note": "[Example 26, N-Cyclopentyl-3-[2-(cyclopentylamino)pyrimidin-4-yl]-2-(4-isobutoxyphenyl)pyrazolo[1,5-c]pyrimidin-7-amine]", "values": [
      {"measurement": "IC50", "value": 500, "unit": "nM"}
    ]},
    {"molecule": "COCCOc1ccc(-c2nn3c(NC4CCCC4)nccc3c2-c2ccnc(NC3CCCC3)n2)cc1", "note": "[Example 27, N-Cyclopentyl-3-[2-(cyclopentylamino)pyrimidin-4-yl]-2-[4-(2-methoxyethoxy)phenyl]pyrazolo[1,5-c]pyrimidin-7-amine]", "values": [
      {"measurement": "IC50", "value": 1000, "unit": "nM"}
    ]}
  ]
}
